This note sets out measurements from patent US8470892B2, “Method of inducing neovascularization” (priority 2010, dated 2013).

For series [1], the system named is complement system. The series can be described thus: Dependence of PEG-8 induced CNV on complement: depletion with Cobra Venom Factor. In kind it is in vivo, mice. The procedure: To investigate dependence of PEG-8 induced CNV on complement system activation, the complement system in the mice was depleted by intraperitoneal administration of Cobra Venom Factor. Four groups of animals were used (n=5 mice in each group). Group 1 and 2 were treated intraperitoneal with 4 U of cobra venom factor as described in the inventors' previous publication for 2 days before and every day after subretinal injections. Group 3 and 4 were injected intraperitoneal with vehicle (0.9% Sodium Chloride).
The mice were then injected with subretinal PEG-8 and investigated at day 5 after treatment. […] RPE-choroids of these mice were stained for MAC by IHC and investigated flat mounts using confocal microscopy. Areas of high MAC deposition in animals treated with saline (FIG. 4B) were found but not in CVF treated group (FIG. 4C).

In a further series the test system is Male C57BL/6 mice. The series can be described thus: CNV induction by subretinal injection of PEG-8 (FITC-dextran perfused RPE-choroid-sclera flat mounts). It is filed as in vivo. Here is the method:
Male C57BL/6 mice (7-9 weeks old) were anesthetized with Ketamine (80 mg/kg) and Xylazine (20 mg/kg) prior to subretinal injection. One eye was decompressed with 27G needle by inserting the needle through the limbus and sclera. Microinjector UMP3 equipped with Nanofil syringe 100 μL and 33G blunt needle (Word Precision Instruments) was used for injections. The needle was inserted into the incision created by decompression. Movement of the needle was stopped when light resistance was felt by operator. Solutions (single injection of 2 μL) were injected slowly for 5 seconds in the subretinal space. All manipulations were performed under visual control using microscope. Detachment of the retina was visible through the lens. The second eyes of mice were not injected.
To investigate dose dependent effect of PEG-8 (Polyethylene glycol 400) the inventors divided the animals into 7 groups: one control group (n=3 mice) which was not treated at all, group 2 (n=3 mice) received a single subretinal injection of vehicle (2 μL of 0.9% sterile sodium chloride), and five experimental groups which were injected with different doses of PEG-8: 2.0 mg, 1.0 mg, 0.5 mg, 0.25 mg and 0.125 mg. PEG-8 was dissolved in vehicle before injection. Doses of PEG-8 were delivered to the one experimental eye in 2 μL respectively. To determine optimal dose of PEG-8, the inventors performed histological examination and investigation of flat mounted RPE-choroid-sclera complexes after perfusion of animals with FITC-dextran solution at day 14 after injection.
To investigate the time course of CNV after PEG-injection, the animals were injected with 1.0 mg of PEG-8 subretinally and 5 mice from each group were sacrificed at day 1, 3, 5, 7, 14, 21, 28, and 42 post-injection. […] CNV reached maximal size at day 5 and was present until at least day 42.
To evaluate the CNV size, the animals were perfused through their heart with 0.75 ml of phosphate-buffered saline (PBS) containing 50 mg/ml of fluorescein-labeled dextran (FITC-Dextran, 2 million average mw) before they were sacrificed. The eyes were harvested and fixed for 4 hours in 10% phosphate buffered formalin and RPE-choroid-sclera flat mounts were prepared. The RPE-choroid-sclera complexes were mounted in ProLong Antifade reagent with the sclera facing down and were examined under a ZEISS LSM 510 laser confocal microscope.
Confocal microscopy of flat mounted RPE-choroids perfused with FITC-dextran was performed and investigated with semi thin (1 μm) embedded sections at day 5 after injection when CNV was fully developed. […] After PEG-8 injection, CNV was located between two layers of RPE cells in subretinal space (FIGS. 3B, D, F). No vessels originated from retina was found (FIG. 3D). 5 μm paraffin section of control (saline) and PEG-8 injected mice at day 1 were investigated, 3 and 5 after treatment. RPE cells in control groups formed single layer of cells and endothelial cells were found within choroid (FIG. 3G). Starting from day 1 after PEG-8 treatment, zones of affected RPE cell structure were discovered with increased size, irregular shape and presence of space between neighboring RPE cells (FIG. 3H). Isolectin-IB4 positively labeled cells located between affected RPE cells were found at day 1, 3 and 5 after injection (FIGS. 3H-J). Isolectin-IB4 positive had contact with choroidal Isolectin-IB4 positive capillaries and formed vessels in subretinal tissue between existing and newly formed RPE cell layers (FIG. 3J).

The subject of series [2] is complement system. The series can be described thus: Activation of the complement system by PEG-8 in serum and RPE-choroid. It is filed as in vivo, mice. Here is the method: Activation of the complement system by PEG-8 was also studied in the RPE-choroid and in the blood. PEG-8 or saline was injected subretinally and animals were sacrificed at day 1, 3 and 5 after treatment. Total complement activation was studied in the serum. Levels of C3 split products and MAC were investigated in RPE-choroid tissue. […] PEG-8 and saline injected animals at day 3 and 5 had the same levels of total C3 (43 kDa and 23 kDA), but levels of C3 (43 kDa) were higher in PEG-8 treated animals compared to saline injected mice (FIGS. 5C, D).

The subject of a further series is VEGF. The series is described as follows: VEGF levels by ELISA in posterior part of the eyes after PEG-8. In kind it is in vivo, mice. For orientation: In an ELISA, binding on a coated surface is turned into a signal by an enzyme label.
Where [3] appears, read: subretinal PEG-8, day 1, 3 and 5.

As for CVF, the “total complement activity in serum vs saline injected animals” value in the series with complement system [1] (4 U CVF intraperitoneal, day 5 after subretinal PEG-8, p<0.05) is “significantly reduced”. The “reduction of CNV size (area of FITC-dextran perfused vessels)” value in the series on complement system [1] (CVF intraperitoneal, PEG-8 induced CNV, day 5, p<0.05) was determined as 3 fold. The “MAC positive fluorescence in RPE-choroid, saline treated animals compared to CVF injected mice” value in the series on complement system [1] (IHC flat mounts, day 5, p<0.05) is given as “significantly higher”.

Polyethylene glycol 400 [PEG-8]: the “CNV size and frequency compared between doses” value in the series on Male C57BL/6 mice (1.0 mg dose, day 14) is “largest size and frequency”. For the same substance, in the series with Male C57BL/6 mice (1.0 mg subretinal, day 14 after injection), the “frequency of CNV” value is on record as 4.4 sites of CNV per eye. Further, in the series with Male C57BL/6 mice (1.0 mg subretinal, time course), the CNV present until was no less than 42 days, the “first signs of CNV detected” value turned out to be 3 days and the “time at which CNV reached maximal size” value was determined as 5 days. In the series with Male C57BL/6 mice (compared to laser treatment or surgical procedures), the “damage of RPE-choroid after subretinal injection” value was “much smaller”. Besides, in the series with Male C57BL/6 mice (doses 2.0, 1.0, 0.5, 0.25 and 0.125 mg subretinal, day 14), the “occurrence of CNV” value is recorded as “CNV in all investigated groups”. Also, the “MAC levels in RPE-choroid vs saline treated animals (Western blotting)” value in the series on complement system [2] (all investigated time points (day 1, 3, 5)) was “approximately three fold higher”. The “C3 split products levels in RPE-choroid vs saline injected mice” value in the series on complement system [2] (day 1 post-injection only) is “three-fold increase”. Besides, in the series on complement system [2] (day 3 and 5), the “levels of C3 (43 kDa) vs saline injected mice” value is on record as “higher”; the “levels of total C3 (43 kDa and 23 kDA) vs saline” value is recorded as “same levels”. In the series on complement system [2] (setting [3]), the “alternative complement activity in mouse serum” value is on record as “did not affect” and the “total complement activity in mouse serum” value is reported as “did not affect”. Also, the “VEGF in intra- and extracellular fraction of proteins from posterior part of the eyes” value in the series on VEGF is given as “increase of VEGF”.
